Assay results from patent publication US20240376126A1, “PRMT5 INHIBITOR AND THE USE THEREOF” (CYTOSINLAB THERAPEUTICS CO., LTD., priority 2022, published 2024).
Where two headings read alike, the source gives them in different places.

Tests used:
[1] = tested on: HCT116 MTAP WT cells; assay: Proliferation inhibition of HCT116 cells in vitro (CellTiter Glo, 6 days); type: cell-based; settings: Homo sapiens, HCT-116, 144 h, read-out: Cell proliferation inhibition rate HCT116 MTAP WT IC50 (nm)
Excerpt: (§1) Biological Test Example 2 Proliferation Inhibition of HCT116 and HCT116 MTAP-KO Cells In Vitro
(§2) HCT116 cell line was purchased from the Chinese Academy of Sciences Cell Bank, and the MTAP gene was knocked out by CRISPR/Cas9 technology to obtain HCT116-MTAP-KO cell line.
(§3) McCoy's 5A medium (Gibco, catalog No. 16600082), fetal bovine serum (Gibco, catalog No. 10099141C), penicillin-streptomycin double antibody (Gibco, catalog No. 15140122), pancreatic enzyme (Gibco, catalog No. 25200056), CellTiter Glo assay kit (Promega, catalog No. G7572), 384-well transparent flat-bottomed black walled cell culture plate (Corning, catalog No. 3764), ultra micro sampler (Tecan, catalog No. D300e), Multimode reader (Biotek, catalog No. SynergyHTX)
(§4) • 1. Cell culture: HCT116 and HCT116-MTAP-KO cells were cultured in McCoy'5A medium+10% fetal bovine serum+1% penicillin-streptomycin double antibody; to ensure that they were always in the logarithmic growth phase and the cell viability greater than 95%. • 2. Compound concentration gradient preparation: The compound to be tested was added to a 384-well plate using an ultra micro sampler, starting from 30 μM (HCT116 cells) or 3 μM (HCT116-MTAP-KO cells), and diluted with DMSO at 3 times for a total of 9 concentrations and set up three duplicate wells. • 3. Treatment of cells with compounds: Trypsin-digested HCT116 or HCT116-MTAP-KO cell suspension was added to the 384-well plates spotted with the compounds to be tested at 40 μL per well, i.e., 100 cells per well, and the final concentration of DMSO was 0.4%. The cell culture plate was incubated at 37° C. in a 5% CO2 incubator for 6 days. • 4. Detection: 20 μL of CellTiter Glo reagent was added to each well of the cell culture plate and incubated at room temperature for 30 minutes. A multimode reader was used to detect the luminescence signal at […]. • 5. Data analysis:
(§5) The data was fitted with GraphPad Prism 8.0 software using a four parameter inhibitor-reaction model to obtain the […] (half inhibitory concentration) of the test compounds.
(§6) The first column represents cell proliferation inhibition rate HCT116 MTAP WT IC50 (nm), and the second column represents cell proliferation inhibition rate HCT116-MTAP null IC50 (nm): […]

[2] = tested on: HCT116-MTAP-KO (MTAP null) cells; assay: Proliferation inhibition of HCT116 MTAP-KO cells in vitro (CellTiter Glo, 6 days); type: cell-based; settings: read-out: Cell proliferation inhibition rate HCT116-MTAP null IC50 (nm)
Excerpt: as §1, §2, §3, §4, §5, §6

| Compound | IC50 [1] [µM] | IC50 ([2]; HCT116-MTAP null, 144 h) [µM] | IC50 [2] [µM] |
| --- | --- | --- | --- |
| [2H]C([2H])([2H])N(Cc1cn2cc(C(F)(F)F)ccc2n1)C(=O)c1ccc2nc(N)c3c(c2c1)COC3C (centres unmarked) [Example 50] | 1 to 10 | 0.1 to 1 | < 0.1 |
| CCN(Cc1cn2cc(C(F)(F)F)ccc2n1)C(=O)c1ccc2nc(N)c3c(c2c1)COC3C (centres unmarked) [Example 51] | 1 to 10 | 0.1 to 1 | – |
| CC(C)CN(Cc1cn2cc(C(F)(F)F)ccc2n1)C(=O)c1ccc2nc(N)c3c(c2c1)COC3C (centres unmarked) [Example 52] | 1 to 10 | < 0.1 | – |
| CC(C)CN(Cc1cn2ccccc2n1)C(=O)c1ccc2nc(N)c3c(c2c1)COC3C (centres unmarked) [Example 53] | 1 to 10 | < 0.1 | – |
| CC(C)CN(Cc1cn2ccccc2n1)C(=O)c1ccc2nc(N)c3c(c2c1)CO[C@@H]3C [Example 54] | 1 to 10 | 0.1 to 1 | – |
| CC(C)CN(Cc1cn2ccccc2n1)C(=O)c1ccc2nc(N)c3c(c2c1)CO[C@H]3C [Example 55] | 1 to 10 | < 0.1 | – |
| CC1OCc2c1c(N)nc1ccc(C(=O)N(Cc3cn4ccccc4n3)C34CC(C3)C4)cc21 (centres unmarked) [Example 56] | 1 to 10 | 0.1 to 1 | – |
| CC1OCc2c1c(N)nc1ccc(C(=O)N(Cc3cn4ccccc4n3)c3cnn(C)c3)cc21 (centres unmarked) [Example 57] | 1 to 10 | 0.1 to 1 | – |
| CC(C)CN(Cc1nc2ccccn2c1F)C(=O)c1cc2c(cc1F)nc(N)c1cnn(C)c12 [Example 58] | 0.1 to 1 | < 0.1 | – |
| Cn1ncc2c(N)nc3cc(F)c(C(=O)N(Cc4cn5ccccc5n4)C45CC(F)(C4)C5)cc3c21 [Example 59] | 1 to 10 | < 0.1 | – |
| COCCN(C(=O)c1cc2c(cc1F)nc(N)c1cnn(C)c12)C(C)c1cn2ccccc2n1 (centres unmarked) [Example 60] | 1 to 10 | < 0.1 | – |
| Cn1ncc2c(N)nc3cc(F)c(C(=O)N(Cc4cn5ccccc5n4)C45CC(C#N)(C4)C5)cc3c21 [Example 61] | 1 to 10 | < 0.1 | – |
| Cn1ncc2c(N)nc3cc(F)c(C(=O)N(Cc4cn5ccccc5n4)C45CC(C(F)(F)F)(C4)C5)cc3c21 [Example 62] | 1 to 10 | < 0.1 | – |
| C[C@@H]1COC[C@H](c2cn3ccccc3n2)N1C(=O)c1ccc2nc(N)c3cnn(C)c3c2c1 [Example 63] | 1 to 10 | < 0.1 | – |
| CC1OCc2c1c(N)nc1ccc(C(=O)N3[C@H](C)COC[C@@H]3c3cn4ccccc4n3)cc21 (some centres unmarked) [Example 64] | 1 to 10 | 0.1 to 1 | – |
| CC1OCc2c1c(N)nc1ccc(C(=O)N(Cc3cn4ccccc4n3)C(C)C(F)(F)F)cc21 (centres unmarked) [Example 65] | 1 to 10 | 0.1 to 1 | – |
| CC1OCc2c1c(N)nc1ccc(C(=O)N(Cc3cn4ccccc4n3)CC(F)F)cc21 (centres unmarked) [Example 66] | 1 to 10 | 0.1 to 1 | – |
| CC1OCc2c1c(N)nc1ccc(C(=O)N3C(C)COCC3c3cn4cc(C(F)(F)F)ccc4n3)cc21 (centres unmarked) [Example 67] | 1 to 10 | 0.1 to 1 | – |
| Cn1cc(N(Cc2cn3cc(C(F)(F)F)ccc3n2)C(=O)c2ccc3nc(N)c4c(c3c2)COC4)cn1 [Example 68] | 1 to 10 | < 0.1 | – |
| CCN(Cc1cn2ccccc2n1)C(=O)c1cc2c(cn1)nc(N)c1cnc(C)n12 [Example 69] | 1 to 10 | 0.1 to 1 | – |
| CC1OCc2c1c(N)nc1ccc(C(=O)N(Cc3nc4ccc(C(F)(F)F)cn4c3F)c3cnn(C)c3)cc21 (centres unmarked) [Example 71] | 1 to 10 | < 0.1 | – |
| C[C@H]1OCc2c1c(N)nc1ccc(C(=O)N(Cc3cn4c(C(F)(F)F)cccc4n3)c3cnn(C)c3)cc21 [Example 72] | 1 to 10 | 1 to 10 | – |

| Compound | IC50 [1] [µM] | IC50 ([2]; HCT116-MTAP null, 144 h) [µM] | IC50 [2] [µM] |
| --- | --- | --- | --- |
| C[C@@H]1OCc2c1c(N)nc1ccc(C(=O)N(Cc3cn4c(C(F)(F)F)cccc4n3)c3cnn(C)c3)cc21 [Example 73] | 1 to 10 | < 0.1 | – |
| CC1OCc2c1c(N)nc1ccc(C(=O)N(Cc3cn4c(C(F)(F)F)cccc4n3)c3cnn(C)c3)cc21 (centres unmarked) [Example 74] | 1 to 10 | 0.1 to 1 | – |
| Cc1ccc2nc(CN(C(=O)c3ccc4nc(N)c5c(c4c3)COC5C)c3cnn(C)c3)cn2c1 (centres unmarked) [Example 75] | 1 to 10 | < 0.1 | – |
| CC1OCc2c1c(N)nc1ccc(C(=O)N(Cc3cn4cc(C(F)F)ccc4n3)c3cnn(C)c3)cc21 (centres unmarked) [Example 78] | 1 to 10 | < 0.1 | – |
| Cn1cc(N(Cc2cn3cc(C(F)(F)F)ccc3n2)C(=O)c2cc3c4c(c(N)nc3cc2F)COC4)cn1 [Example 80] | 1 to 10 | < 0.1 | – |
| Cn1cc(N(Cc2cn3ccccc3n2)C(=O)c2cc3c4c(c(N)nc3cc2F)COC4)cn1 [Example 82] | 1 to 10 | < 0.1 | – |
| Cn1cc(N(Cc2nc3ccccn3c2F)C(=O)c2cc3c4c(c(N)nc3cc2F)COC4)cn1 [Example 83] | 0.1 to 1 | < 0.1 | – |
| Cn1cc(N(Cc2nc3ccc(C(F)(F)F)cn3c2F)C(=O)c2cc3c4c(c(N)nc3cc2F)COC4)cn1 [Example 84] | 1 to 10 | < 0.1 | – |
| CCN(Cc1cn2cc(C(F)(F)F)ccc2n1)C(=O)c1cc2c3c(c(N)nc2cc1F)COC3 [Example 85] | 1 to 10 | < 0.1 | – |
| CCN(Cc1cn2ccccc2n1)C(=O)c1cc2c3c(c(N)nc2cc1F)COC3 [Example 86] | 1 to 10 | < 0.1 | – |
| Cc1ccc2nc(CN(C(=O)c3cc4c5c(c(N)nc4cc3F)COC5)c3cnn(C)c3)cn2c1 [Example 87] | 1 to 10 | < 0.1 | – |
| Cn1ncc(N(Cc2cn3cc(C(F)(F)F)ccc3n2)C(=O)c2cc3c4c(c(N)nc3cc2F)COC4)n1 [Example 88] | 1 to 10 | < 0.1 | – |
| Cc1nn(C)cc1N(Cc1cn2cc(C(F)(F)F)ccc2n1)C(=O)c1ccc2nc(N)c3c(c2c1)COC3 [Example 89] | 1 to 10 | < 0.1 | – |
| Cc1nn(C)cc1N(Cc1cn2cc(C(F)(F)F)ccc2n1)C(=O)c1ccc2nc(N)c3c(c2c1)CO[C@H]3C [Example 90] | 0.1 to 1 | < 0.1 | – |
| Cn1cc(N(Cc2nc3ccc(C(F)(F)F)cn3c2F)C(=O)c2ccc3nc(N)c4c(c3c2)COC4)cn1 [Example 91] | 1 to 10 | < 0.1 | – |
| Cn1cc(N(Cc2nc3ccccn3c2F)C(=O)c2ccc3nc(N)c4c(c3c2)COC4)cn1 [Example 92] | 1 to 10 | < 0.1 | – |
| Cc1nn(C)cc1N(Cc1nc2ccc(C(F)(F)F)cn2c1F)C(=O)c1ccc2nc(N)c3c(c2c1)COC3 [Example 93] | 1 to 10 | < 0.1 | – |
| Nc1nc2cc(F)c(C(=O)N(Cc3cn4cc(C(F)(F)F)ccc4n3)C3CCOC3)cc2c2c1COC2 (centres unmarked) [Example 94] | 1 to 10 | 0.1 to 1 | – |
| CCn1cc(N(Cc2cn3cc(C(F)(F)F)ccc3n2)C(=O)c2ccc3nc(N)c4c(c3c2)COC4)c(C)n1 [Example 95] | 1 to 10 | < 0.1 | – |
| Cc1nn(C)cc1N(Cc1nc2ccccn2c1F)C(=O)c1ccc2nc(N)c3c(c2c1)COC3 [Example 96] | 1 to 10 | < 0.1 | – |
| CCc1nn(C)cc1N(Cc1cn2cc(C(F)(F)F)ccc2n1)C(=O)c1ccc2nc(N)c3c(c2c1)COC3 [Example 97] | 1 to 10 | < 0.1 | – |
| Cc1cc(N(Cc2cn3cc(C(F)(F)F)ccc3n2)C(=O)c2ccc3nc(N)c4c(c3c2)COC4)n(C)n1 [Example 98] | 1 to 10 | < 0.1 | – |
